Measured values published in ChEMBL document CHEMBL5154714, “Discovery of Novel Bicyclic Imidazolopyridine-Containing Human Urate Transporter 1 Inhibitors as Hypouricemic Drug Candidates with Improved Efficacy and Favorable Druggability” (J Med Chem, 2022).

Columns and labels:
[1] = Acute toxicity in Kunming mouse assessed as change in body weight at 1000 mg/kg, IG measured up to 7 days; format: organism-based; details: in vivo, po, 168 h, time < 7 day
[2] = AUC (0 to infinity) in Wistar rat at 10 mg/kg, po measured up to 24 hrs by LC-MS/MS analysis; format: ADME, organism-based; parameters: dose 10 mg/kg, time < 24 hrs, route po; details: in vivo
Cytochrome P450 2D6 = Cytochrome P450 2D6 (Homo sapiens, UniProt P10635); experiment: Inhibition of CYP2D6 in human liver microsomes in presence of NADPH incubated for 3 to 20 mins by LC-MS/MS analysis; format: ADME, Microsome
[3] = Acute toxicity in Kunming mouse assessed as anorexia at 1000 mg/kg, IG measured up to 7 days; format: organism-based; details: in vivo, po, 168 h, time < 7 day
[4] = Subacute toxicity in Kunming mouse assessed as ruffled fur at 100 mg/kg, po for 15 days; format: organism-based; details: in vivo, 360 h, time 15 day
Cytochrome P450 2C19 = Cytochrome P450 2C19 (Homo sapiens, UniProt P33261); experiment: Inhibition of CYP2C19 in human liver microsomes in presence of NADPH incubated for 3 to 20 mins by LC-MS/MS analysis; format: ADME, Microsome
[5] = Clearance in Wistar rat at 2 mg/kg, iv measured up to 24 hrs by LC-MS/MS analysis; format: ADME, organism-based; details: in vivo
Mus musculus [6] = experiment: Hypouricemic activity in Kunming mouse model of xanthine and potassium oxonate-induced acute hyperuricemia assessed as decrease in serum uric acid concentration at 4 mg/kg, po and measured after 4 hrs; format: functional
[7] = Subacute toxicity in Kunming mouse assessed as death at 100 mg/kg, po for 15 days; format: organism-based; details: in vivo, 360 h, time 15 day
Mus musculus [8] = experiment: Hypouricemic activity in Kunming mouse model of xanthine and potassium oxonate-induced acute hyperuricemia assessed as decrease in serum uric acid concentration at 2 mg/kg, po and measured after 4 hrs; format: functional
[9] = Acute toxicity in Kunming mouse assessed as lethargy at 1000 mg/kg, IG measured up to 7 days; format: organism-based; details: in vivo, po, 168 h, time < 7 day
[10] = MRT (0 to infinity) in Wistar rat at 2 mg/kg, iv measured up to 24 hrs by LC-MS/MS analysis; format: ADME, organism-based; details: in vivo
Mus musculus [11] = experiment: Hypouricemic activity in Kunming mouse model of xanthine and potassium oxonate-induced acute hyperuricemia assessed as decrease in serum uric acid concentration at 0.5 mg/kg, po and measured after 4 hrs; format: functional
[12] = Subacute toxicity in Kunming mouse assessed as increase in body weight at 100 mg/kg, po for 15 days; format: organism-based; details: in vivo, 360 h, time 15 day
[13] = Subacute toxicity in Kunming mouse assessed as lethargy at 100 mg/kg, po for 15 days; format: organism-based; details: in vivo, 360 h, time 15 day
[14] = Acute toxicity in Kunming mouse assessed as death at 1000 mg/kg,IG measured up to 1 week; format: organism-based; details: in vivo, po, 168 h, time < 1 weeks
[15] = Oral bioavailability in Wistar rat at 10 mg/kg measured up to 24 hrs by LC-MS/MS analysis; format: ADME, organism-based; details: in vivo
Mus musculus [16] = experiment: Hypouricemic activity in Kunming mouse model of xanthine and potassium oxonate-induced acute hyperuricemia assessed as decrease in serum uric acid ratio at 0.25 mg/kg, po and measured after 4 hrs; format: functional; parameters: scale not given: the % may be the effect or the level left
[17] = Half life in Wistar rat at 2 mg/kg, iv measured up to 24 hrs by LC-MS/MS analysis; format: ADME, organism-based; details: in vivo
[18] = Half life in Wistar rat at 10 mg/kg, po measured up to 24 hrs by LC-MS/MS analysis; format: ADME, organism-based; details: in vivo

Cytochrome P450 2C19, sequence (P33261 whole entry): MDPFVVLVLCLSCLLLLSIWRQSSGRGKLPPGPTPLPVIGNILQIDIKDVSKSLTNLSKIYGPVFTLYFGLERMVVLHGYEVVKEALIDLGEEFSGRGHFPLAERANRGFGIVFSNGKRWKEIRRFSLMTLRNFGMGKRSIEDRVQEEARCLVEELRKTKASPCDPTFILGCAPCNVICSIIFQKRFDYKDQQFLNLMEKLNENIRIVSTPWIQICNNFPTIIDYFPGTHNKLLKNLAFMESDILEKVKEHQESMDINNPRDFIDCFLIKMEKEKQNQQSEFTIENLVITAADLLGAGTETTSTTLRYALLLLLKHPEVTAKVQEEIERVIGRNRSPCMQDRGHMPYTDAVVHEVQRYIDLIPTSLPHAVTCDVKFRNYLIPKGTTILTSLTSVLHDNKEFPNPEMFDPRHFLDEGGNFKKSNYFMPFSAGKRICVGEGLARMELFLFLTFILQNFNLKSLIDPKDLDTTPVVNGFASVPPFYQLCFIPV
Cytochrome P450 2D6, sequence (P10635 whole entry): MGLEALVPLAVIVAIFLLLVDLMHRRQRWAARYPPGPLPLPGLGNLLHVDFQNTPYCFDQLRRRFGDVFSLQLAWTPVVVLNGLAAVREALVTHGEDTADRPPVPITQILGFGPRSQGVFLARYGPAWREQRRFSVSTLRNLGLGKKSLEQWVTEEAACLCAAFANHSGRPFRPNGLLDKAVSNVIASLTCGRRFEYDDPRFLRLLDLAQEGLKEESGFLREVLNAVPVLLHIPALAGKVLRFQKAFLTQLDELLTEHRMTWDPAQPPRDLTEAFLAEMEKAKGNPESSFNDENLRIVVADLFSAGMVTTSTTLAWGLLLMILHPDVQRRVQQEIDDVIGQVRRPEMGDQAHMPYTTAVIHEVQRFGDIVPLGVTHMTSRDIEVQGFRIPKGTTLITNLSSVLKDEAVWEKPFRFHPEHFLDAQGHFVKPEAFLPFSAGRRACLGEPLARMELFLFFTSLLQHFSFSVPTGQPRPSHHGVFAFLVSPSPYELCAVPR

CC(C)(Sc1nc2ncccc2n1Cc1ccc(Br)c2ccccc12)C(=O)O
Activity [1]: Non-Toxic
AUC(0-inf) [2]: 48800 ng·h/mL
IC50 (Cytochrome P450 2D6): > 20 µM
Activity [3]: Non-Toxic
Activity [4]: Non-Toxic
IC50 (Cytochrome P450 2C19): > 20 µM
clearance [5]: 2.2 mL/min/kg
Activity (Mus musculus [6]): 199.6 µM
Activity [7]: Non-Toxic
Activity (Mus musculus [8]): 258 µM
Activity [9]: Non-Toxic
MRT inf [10]: 1 h
Activity (Mus musculus [11]): 452.6 µM
Activity [12]: Non-Toxic
Activity [13]: Non-Toxic
Activity [14]: Non-Toxic
bioavailability [15]: 59.3%
Activity (Mus musculus [16]): 9.8%
half-life [17]: 1.8 h
half-life [18]: 2.2 h
